Data from ChEMBL document CHEMBL5584201, “Amphiphilic tribasic galactosamines potentiate rifampicin in Gram-negative bacteria at low Mg++/Ca++concentrations” (Bioorg Med Chem Lett, 2024).
≈ marks a conversion by molar mass, not a printed value. Calls of active or inactive are those of the source. No cut-off for these calls is given here.

How the values were obtained:
Pseudomonas aeruginosa [1] = experiment: Antibacterial activity against Pseudomonas aeruginosa PAO1 in low salt containing media by Mueller-Hinton broth based assay; assay type: functional
Acinetobacter baumannii [2] = experiment: Antibacterial activity against Acinetobacter baumannii ATCC 17978 in low salt containing media by Mueller-Hinton broth based assay; assay type: functional
Escherichia coli [3] = experiment: Antibacterial activity against Escherichia coli ATCC 25922 in low salt containing media by Mueller-Hinton broth based assay; assay type: functional
Pseudomonas aeruginosa [4] = experiment: Potentiation of rifampicin-induced antibacterial activity against Pseudomonas aeruginosa PAO1 assessed as rifampicin MIC in low salt containing media by Mueller-Hinton broth based assay; assay type: functional
Acinetobacter baumannii [5] = experiment: Potentiation of rifampicin-induced antibacterial activity against Acinetobacter baumannii ATCC 17978 assessed as rifampicin MIC in low salt containing media by Mueller-Hinton broth based assay; assay type: functional
Escherichia coli [6] = experiment: Potentiation of rifampicin-induced antibacterial activity against Escherichia coli ATCC 25922 assessed as rifampicin MIC in low salt containing media by Mueller-Hinton broth based assay; assay type: functional
Pseudomonas aeruginosa [7] = experiment: Potentiation of rifampicin-induced antibacterial activity against Pseudomonas aeruginosa PAO1 assessed as fold change in rifampicin MIC in low salt containing media by Mueller-Hinton broth based assay; assay type: functional
Acinetobacter baumannii [8] = experiment: Potentiation of rifampicin-induced antibacterial activity against Acinetobacter baumannii ATCC 17978 assessed as fold change in rifampicin MIC in low salt containing media by Mueller-Hinton broth based assay; assay type: functional
Escherichia coli [9] = experiment: Potentiation of rifampicin-induced antibacterial activity against Escherichia coli ATCC 25922 assessed as fold change in rifampicin MIC in low salt containing media by Mueller-Hinton broth based assay; assay type: functional
Acinetobacter baumannii [10] = experiment: Antibacterial activity against Acinetobacter baumannii ATCC 17978 in high concentration of Ca++ and Mg++ containing media by Mueller-Hinton broth based assay; assay type: functional
Acinetobacter baumannii [11] = experiment: Antibacterial activity against Acinetobacter baumannii 92247 in high concentration of Ca++ and Mg++ containing media by Mueller-Hinton broth based assay; assay type: functional
Escherichia coli [12] = experiment: Antibacterial activity against Escherichia coli ATCC 25922 in high concentration of Ca++ and Mg++ containing media by Mueller-Hinton broth based assay; assay type: functional
Escherichia coli [13] = experiment: Antibacterial activity against Escherichia coli […] in high concentration of Ca++ and Mg++ containing media by Mueller-Hinton broth based assay; assay type: functional
Acinetobacter baumannii [14] = experiment: Potentiation of rifampicin-induced antibacterial activity against Acinetobacter baumannii ATCC 17978 assessed as rifampicin MIC at 2 to 8 microg/ml in high concentration of Ca++ and Mg++ containing media by Mueller-Hinton broth based assay; assay type: functional; details: dose 2-8 µg/ml
Acinetobacter baumannii [15] = experiment: Potentiation of rifampicin-induced antibacterial activity against Acinetobacter baumannii 92247 assessed as rifampicin MIC at 2 to 8 microg/ml in high concentration of Ca++ and Mg++ containing media by Mueller-Hinton broth based assay; assay type: functional; details: dose 2-8 µg/ml
Escherichia coli [16] = experiment: Potentiation of rifampicin-induced antibacterial activity against Escherichia coli ATCC 25922 assessed as rifampicin MIC at 2 to 8 microg/ml in high concentration of Ca++ and Mg++ containing media by Mueller-Hinton broth based assay; assay type: functional; details: dose 2-8 µg/ml
Escherichia coli [17] = experiment: Potentiation of rifampicin-induced antibacterial activity against Escherichia coli […] assessed as rifampicin MIC at 2 to 8 microg/ml in high concentration of Ca++ and Mg++ containing media by Mueller-Hinton broth based assay; assay type: functional; details: dose 2-8 µg/ml
Acinetobacter baumannii [18] = experiment: Potentiation of rifampicin-induced antibacterial activity against Acinetobacter baumannii ATCC 17978 assessed as fold change in rifampicin MIC at 2 to 8 microg/ml in high concentration of Ca++ and Mg++ containing media by Mueller-Hinton broth based assay; assay type: functional; details: dose 2-8 µg/ml
Acinetobacter baumannii [19] = experiment: Potentiation of rifampicin-induced antibacterial activity against Acinetobacter baumannii 92247 assessed as fold change in rifampicin MIC at 2 to 8 microg/ml in high concentration of Ca++ and Mg++ containing media by Mueller-Hinton broth based assay; assay type: functional; details: dose 2-8 µg/ml
Escherichia coli [20] = experiment: Potentiation of rifampicin-induced antibacterial activity against Escherichia coli ATCC 25922 assessed as fold change in rifampicin MIC at 2 to 8 microg/ml in high concentration of Ca++ and Mg++ containing media by Mueller-Hinton broth based assay; assay type: functional; details: dose 2-8 µg/ml
Escherichia coli [21] = experiment: Potentiation of rifampicin-induced antibacterial activity against Escherichia coli […] assessed as fold change in rifampicin MIC at 2 to 8 microg/ml in high concentration of Ca++ and Mg++ containing media by Mueller-Hinton broth based assay; assay type: functional; details: dose 2-8 µg/ml
Acinetobacter baumannii [22] = experiment: Potentiation of rifampicin-induced antibacterial activity against Acinetobacter baumannii ATCC 17978 assessed as rifampicin MIC at 16 microg/ml in high concentration of Ca++ and Mg++ containing media by Mueller-Hinton broth based assay; assay type: functional; details: dose 16 µg/ml
Acinetobacter baumannii [23] = experiment: Potentiation of rifampicin-induced antibacterial activity against Acinetobacter baumannii 92247 assessed as rifampicin MIC at 16 microg/ml in high concentration of Ca++ and Mg++ containing media by Mueller-Hinton broth based assay; assay type: functional; details: dose 16 µg/ml
Escherichia coli [24] = experiment: Potentiation of rifampicin-induced antibacterial activity against Escherichia coli ATCC 25922 assessed as rifampicin MIC at 16 microg/ml in high concentration of Ca++ and Mg++ containing media by Mueller-Hinton broth based assay; assay type: functional; details: dose 16 µg/ml
Escherichia coli [25] = experiment: Potentiation of rifampicin-induced antibacterial activity against Escherichia coli […] assessed as rifampicin MIC at 16 microg/ml in high concentration of Ca++ and Mg++ containing media by Mueller-Hinton broth based assay; assay type: functional; details: dose 16 µg/ml
Acinetobacter baumannii [26] = experiment: Potentiation of rifampicin-induced antibacterial activity against Acinetobacter baumannii ATCC 17978 assessed as fold change in rifampicin MIC at 16 microg/ml in high concentration of Ca++ and Mg++ containing media by Mueller-Hinton broth based assay; assay type: functional; details: dose 16 µg/ml
Acinetobacter baumannii [27] = experiment: Potentiation of rifampicin-induced antibacterial activity against Acinetobacter baumannii 92247 assessed as fold change in rifampicin MIC at 16 microg/ml in high concentration of Ca++ and Mg++ containing media by Mueller-Hinton broth based assay; assay type: functional; details: dose 16 µg/ml
Escherichia coli [28] = experiment: Potentiation of rifampicin-induced antibacterial activity against Escherichia coli ATCC 25922 assessed as fold change in rifampicin MIC at 16 microg/ml in high concentration of Ca++ and Mg++ containing media by Mueller-Hinton broth based assay; assay type: functional; details: dose 16 µg/ml
Escherichia coli [29] = experiment: Potentiation of rifampicin-induced antibacterial activity against Escherichia coli […] assessed as fold change in rifampicin MIC at 16 microg/ml in high concentration of Ca++ and Mg++ containing media by Mueller-Hinton broth based assay; assay type: functional; details: dose 16 µg/ml
[30] = Cytotoxicity against HEK293 cells assessed as cell viability at 9 uM relative to control; assay type: toxicity, cell-based; details: human, read-out: Activity
[31] = Cytotoxicity against human HepG2 cells assessed as cell viability at 9 uM relative to control; assay type: toxicity, cell-based; details: read-out: Activity
Acinetobacter baumannii [32] = experiment: Potentiation of rifampicin-induced antibacterial activity against multidrug resistant Acinetobacter baumannii AB027 at 1/4 MIC in low salt containing media by Mueller-Hinton broth based assay; assay type: functional, organism-based
Acinetobacter baumannii [33] = experiment: Potentiation of rifampicin-induced antibacterial activity against multidrug resistant Acinetobacter baumannii AB031 at 1/4 MIC in low salt containing media by Mueller-Hinton broth based assay; assay type: functional, organism-based
Acinetobacter baumannii [34] = experiment: Potentiation of rifampicin-induced antibacterial activity against multidrug resistant Acinetobacter baumannii clinical isolate 92247 at 1/4 MIC in low salt containing media by Mueller-Hinton broth based assay; assay type: functional, organism-based
Acinetobacter baumannii [35] = experiment: Potentiation of rifampicin-induced antibacterial activity against multidrug resistant Acinetobacter baumannii clinical isolate 110193 at 1/4 MIC in low salt containing media by Mueller-Hinton broth based assay; assay type: functional, organism-based
Acinetobacter baumannii [36] = experiment: Potentiation of rifampicin-induced antibacterial activity against multidrug resistant Acinetobacter baumannii LAC-4 in low salt containing media by Mueller-Hinton broth based assay; assay type: functional, organism-based
Escherichia coli [37] = experiment: Potentiation of rifampicin-induced antibacterial activity against Escherichia coli clinical isolate 94393 at 1/4 MIC in low salt containing media by Mueller-Hinton broth based assay; assay type: functional, organism-based
Escherichia coli [38] = experiment: Potentiation of rifampicin-induced antibacterial activity against Escherichia coli clinical isolate 94474 at 1/4 MIC in low salt containing media by Mueller-Hinton broth based assay; assay type: functional, organism-based
Escherichia coli [39] = experiment: Potentiation of rifampicin-induced antibacterial activity against Escherichia coli clinical isolate 107115 at 1/4 MIC in low salt containing media by Mueller-Hinton broth based assay; assay type: functional, organism-based

SMILES	MIC (Pseudomonas aeruginosa [1])	MIC (Acinetobacter baumannii [2])	MIC (Escherichia coli [3])	MIC (Pseudomonas aeruginosa [4])	MIC (Acinetobacter baumannii [5])	MIC (Escherichia coli [6])	fold change (FC) (Pseudomonas aeruginosa [7])	fold change (FC) (Acinetobacter baumannii [8])	fold change (FC) (Escherichia coli [9])	MIC (Acinetobacter baumannii [10])	MIC (Acinetobacter baumannii [11])	MIC (Escherichia coli [12])	MIC (Escherichia coli [13])	MIC (Acinetobacter baumannii [14])	MIC (Acinetobacter baumannii [15])	MIC (Escherichia coli [16])	MIC (Escherichia coli [17])	fold change (FC) (Acinetobacter baumannii [18])	fold change (FC) (Acinetobacter baumannii [19])	fold change (FC) (Escherichia coli [20])	further results
CCCCCCCCO[C@H]1[C@@H](N)[C@@H](CN=[N+]=[N-])O[C@H](OCc2ccc3ccccc3c2)[C@@H]1N	32 µg/mL	16 µg/mL	8 µg/mL	8 µg/mL	4 µg/mL	2 µg/mL	8	>=256	64	> 128 µg/mL	128 µg/mL (≈ 281 µM)	128 µg/mL (≈ 281 µM)	128 µg/mL (≈ 281 µM)	4 µg/mL	4 µg/mL	2 µg/mL	2 µg/mL	2	4	1	fold change (FC) (Escherichia coli [21]): 1; MIC (Acinetobacter baumannii [22]): 16 µg/mL; MIC (Acinetobacter baumannii [23]): 16 µg/mL; MIC (Escherichia coli [24]): 16 µg/mL; MIC (Escherichia coli [25]): 16 µg/mL; fold change (FC) (Acinetobacter baumannii [26]): 4; fold change (FC) (Acinetobacter baumannii [27]): 64; fold change (FC) (Escherichia coli [28]): 16; fold change (FC) (Escherichia coli [29]): 64; viability at 9 µM [30]: 31.7%; viability at 9 µM [31]: 46%
CCCCCCCCO[C@@H]1O[C@H](CN)[C@H](N)[C@H](OCc2ccc3cccnc3c2)[C@H]1N	> 128 µg/mL	128 µg/mL	64 µg/mL	8 µg/mL	8 µg/mL	8 µg/mL	2	64	32	–	–	–	–	–	–	–	–	–	–	–	–
NC[C@H]1O[C@@H](OCCC23CC4CC(CC(C4)C2)C3)[C@H](N)[C@@H](OCc2ccc3ccccc3c2)[C@H]1N	32 µg/mL	16 µg/mL	8 µg/mL	8 µg/mL	4 µg/mL	2 µg/mL	2	>=256	16	> 128 µg/mL	> 128 µg/mL	> 128 µg/mL	> 128 µg/mL	4 µg/mL	2 µg/mL	2 µg/mL	4 µg/mL	1	2	1	Activity (Acinetobacter baumannii [32]): inactive; Activity (Acinetobacter baumannii [33]): inactive; Activity (Acinetobacter baumannii [34]): inactive; Activity (Acinetobacter baumannii [35]): inactive; Activity (Acinetobacter baumannii [36]): inactive; Activity (Escherichia coli [37]): Active; Activity (Escherichia coli [38]): inactive; Activity (Escherichia coli [39]): inactive; fold change (FC) (Escherichia coli [21]): 1; MIC (Acinetobacter baumannii [22]): 16 µg/mL; MIC (Acinetobacter baumannii [23]): 16 µg/mL; MIC (Escherichia coli [24]): 16 µg/mL; MIC (Escherichia coli [25]): 16 µg/mL; fold change (FC) (Acinetobacter baumannii [26]): 2; fold change (FC) (Acinetobacter baumannii [27]): 64; fold change (FC) (Escherichia coli [28]): 2; fold change (FC) (Escherichia coli [29]): 8; viability at 9 µM [30]: 46.7%; viability at 9 µM [31]: 76%
CCCCCCCCO[C@H]1[C@@H](N)[C@@H](CN=[N+]=[N-])O[C@@H](OCc2ccc3ccccc3c2)[C@@H]1N	32 µg/mL	16 µg/mL	8 µg/mL	8 µg/mL	4 µg/mL	1 µg/mL	2	128	8	–	–	–	–	–	–	–	–	–	–	–	–
CCCCCCCCCCCCO[C@@H]1O[C@H](CN)[C@H](N)[C@H](OCc2ccc3ccccc3c2)[C@H]1N	8 µg/mL	4 µg/mL	4 µg/mL	2 µg/mL	1 µg/mL	0.5 µg/mL	1	8	1	–	–	–	–	–	–	–	–	–	–	–	–
